Like-named read-outs stand apart in the source and are kept apart here.
Key:
[1] = system: diabetic minipigs; test: Glucose response after subcutaneous injection in diabetic minipigs (Example 8); type: in vivo, Yucatan minipigs
Experimental: Recombinant human insulin were prepared in ultra-fast acting subcutaneous injectable formulations in aqueous solutions containing FDKP at pH 6.5 and 7.4, as summarized in Table 6. All formulation preparation was conducted in a laminar flow hood and the final solutions were filtered through 0.2 micron filters. Both formulations were injected into the subcutaneous tissue of diabetic minipigs (Yucatan minipigs rendered diabetic by treatment with alloxan).
The glucose response from the pH 6.5 formulation compared to a subcutaneous injection of standard lispro insulin is shown in FIG. 1. […] Time to 50% glucose reduction from the formulation is 30 minutes, while that from standard lispro is 50 minutes.
The glucose response from the […] formulation compared to a subcutaneous injection of the ultra-fast acting pH 6.5 formulation, both containing FDKP, are shown in FIG. 2. […] The strong pH dependency of the absorption rate was not anticipated. While not wanting to be held to a specific mechanism for the rapid absorption, the lower pH solution appears to cause there to be less charge on the FDKP, which would make it more hydrophobic, and therefore more likely to bind tightly to the insulin molecule, thereby reducing the overall charge on insulin, causing there to be more monomers in solution, and enhancing the absorption by several mechanisms.

[2] = FDKP micelle formation; type: physicochemical; conditions: FIG. 3
Experimental: FIG. 3 is a graph depicting the concentration of FDKP for forming micelles in phosphate buffer at pH 7.4 above 0.03 mg/ml.
Without being restricted to any one mechanism for creating the ultra-fast insulin formulations, a diketopiperazine, for example FDKP, has effects as an absorption enhancer and permeation enhancer, a metal chelator, a surfactant, a bolaamphiphile, and an aggregation inhibitor, and promotes enhanced absorption through a combination of these effects, including enhancing the amount of monomer insulin in solution upon injection. For example, the fumaric acid charges on the FDKP may serve to charge-mask insulin positive charges, reducing the overall charge on the insulin, and making it more likely to be absorbed, especially when formulations have a pH of about 6.0 to about 7.2, as described herein.

[3] = Solubility of insulin, FDKP and insulin plus FDKP between pH 6.0 and pH 7.4 (Example 9); type: physicochemical
Experimental: A standard solution of insulin (using recombinant human insulin) was made in 0.05N aqueous HCl. An aliquot (1 mg) of the solution was transferred into 4 different Eppendorf tubes and 9 mg of solid Na2-FDKP was added into each tube. A milky suspension formed immediately. The pH was adjusted to the values between pH 6.0 and pH 7.4 using 0.1N aqueous NaOH. Samples of insulin alone were compared to FDKP alone and to the solution of insulin and FDKP. The insulin alone samples were all insoluble. […] All samples containing 9 mg/ml FDKP and 1 mg/ml insulin were soluble at all pH values.

| concentration for forming micelles [2] | solubility ([3]; below pH 7.0) | solubility ([3]; pH 6.0) | solubility ([3]; pH 7.0, listed as FDKP (9 mg/mL)) | solubility ([3]; pH 7.0, listed as FDKP alone) | solubility ([3]; pH 7.4, listed as FDKP (9 mg/mL)) | solubility ([3]; pH 7.4, listed as FDKP alone) | Molecule | Time to 50% glucose reduction [1] | solubility ([3]; pH 6.5) | solubility [3] | solubility ([3]; pH 6) | solubility ([3]; pH 7) | solubility ([3]; pH 7.4) |
| --- | --- | --- | --- | --- | --- | --- | --- | --- | --- | --- | --- | --- | --- |
|  |  |  |  |  |  |  | insulin lispro [standard lispro] | 50 min |  |  |  |  |  |
| ≥ 62 µM | insoluble | Insoluble | Partial | partially soluble | Soluble | soluble | O=C(O)/C=C/C(=O)NCCCCC1NC(=O)C(CCCCNC(=O)/C=C/C(=O)O)NC1=O (centres unmarked) [FDKP, 2,5-diketo-3,6-di(4-fumarylaminobutyl)piperazine] |  | Insoluble |  |  |  |  |
|  |  |  |  |  |  |  | Insulin (1 mg/mL): Recombinant human insulin, 1 mg/mL, without FDKP [reference compound] |  | Insoluble | insoluble | insoluble | Insoluble | Insoluble |
